Literature values, collected in patent US8758740B2, “Composition for promoting ketone body production” (Earthus, Inc, priority 2007, dated 2014).
Read-outs that look alike come from different tables or passages of the source.

How the values were obtained:
[1] = dog
[2] = single oral bolus, 10 g of the cyclic trimer

blood ketone body level ([1]; meat with 23.5 g cyclic trimer four times over 9 hours, after the third administration (at 6 hours)): 30 times of the normal level | blood hydroxybutyric acid level ([1]; meat with 23.5 g cyclic trimer four times over 9 hours, within 30 minutes from the first administration): about 50 times of the normal level | highest blood hydroxybutyric acid level [1, 2]: more than 5 times of the normal level | time of the highest blood hydroxybutyric acid level from the administration [1, 2]: 90 min | blood level of ketone bodies (80 minutes after oral administration of diet containing 11 wt % of the trimer): 1.8 times of the normal level | blood level of ketone bodies (150 minutes after oral administration of diet containing 11 wt % of the trimer): 2.4 times of the normal level
SMILES: C[C@@H]1CC(=O)O[C@H](C)CC(=O)O[C@H](C)CC(=O)O1 [cyclic trimer]
